Tests used:
HepG2 hepatoma cells = assay: Cell proliferation assay HepG2 (CellTiter-Glo, 7 days); type: cell-based; conditions: Homo sapiens, 168 h; HepG2, 7 days, cell viability CellTiter-Glo 2.0
Method: (§1) HepG2 hepatoma cells (ATCC, HB-8065) were maintained in DMEM with high glucose (Lonza, 12-914F) supplemented with 10% fetal bovine serum (FBS; Biowest, S181B-500) and 2 mM L-glutamine (Biowest, X0551-100) at 37° C. and 5% CO2. A549 lung carcinoma cells (ATCC, CCL-185) were maintained in F-12K medium (ThermoFisher 21127030) supplemented with 10% FBS at 37° C. and 5% CO2. Exponentially growing HepG2 or A549 were plated in white, clear-bottom 96-well plates (Corning, 3903) at a cell density of 2000 (HepG2) or 350 (A549) cells per well in 199 μL of HepG2 medium. Next, 1 μL of a 5-fold 9-point dilution series of test compound in DMSO was added to the different wells. Cells were incubated at 37° C. 5% CO2 for 7 days. Cell viability was assessed on day 7 with the CellTiter-Glo 2.0 Cell Viability assay kit (Promega, G9243) to quantify the intracellular amounts of ATP: first, 100 μL of cell culture medium was removed from each well, next 100 μL of CellTiter-Glo® 2.0 Reagent was added and plates were shaken for 2 minutes on an orbital shaker. After 10 minutes stabilization at room temperature, read-out was performed on a ThermoFisher VarioSkan Lux plate reader. Counts were normalized to DMSO control (0% inhibition) and the cytotoxic control (100% inhibition) and EC50 values were determined in GraphPad Prism 8 using the [Agonist] vs. response—Variable slope (four parameters) function.
(§2) As shown by the data of Table 2, compounds of Formula (I) have activity in this assay. A value of ‘A’ in the table below indicates an EC50 of <20 nM, a value of ‘B’ indicates an EC50≥20 nM to <100 nM, a value of ‘C’ indicates an EC50 value of EC50≥100 nM to <1000 nM and a value of ‘D’ indicates an EC50≥1000 nM

[1] = tested on: A549 lung carcinoma cells; assay: Cell proliferation assay A549 (CellTiter-Glo, 7 days); type: cell-based; conditions: Homo sapiens, A549, 168 h, A549, 7 days, cell viability CellTiter-Glo 2.0
Method: as §1, §2

PRMT5/MEP50 [2] = target: T1, PRMT5/MEP50 (Homo sapiens, UniProt O14744); assay: PRMT5/MEP50 enzyme inhibition assay, Assay 2 (384-well, MALDI mass spectrometry, SAM, histone H4 1-21 peptide); type: biochemical; conditions: 1 μM SAM, 0.1 μM histone H4 1-21 peptide, 18-hour incubation at rt
Method: Compounds were tested for inhibition of methyltransferase activity in 384-well plate assay format using mass spectrometry technology. In this enzyme inhibition assay, compounds were tested in a 11-dose IC50 mode with 3-serial dilution, in duplicate, starting at 1, 10, or 100 μM. Reactions were carried out at 1 μM SAM and 0.1 μM histone H4 1-21 peptide as substrates for methyl transfer. Following an 18-hour incubation at rt, the reaction was stopped with 0.5% formic acid. Products of the reaction were captured while unreacted substrates were washed away, prior to MALDI mass spectrometry detection and analysis. Percent enzyme activity was calculated based on no inhibitor DMSO control as 100% activity. EC50 values were determined in GraphPad Prism 8 using the [inhibitor] vs. response—Variable slope (four parameters) function.
(§3) Compounds of Formula (I) show activity in this assay. A value of ‘A’ in the table below indicates an IC50 of <1 nM, a value of ‘B’ indicates an IC50≥1 nM to ≤100 nM, and a value of ‘C’ indicates an IC50 value of >100 nM.

PRMT5/MEP50 [3] = target: T1, PRMT5/MEP50; assay: PRMT5/MEP50 enzyme inhibition assay, Assay 1 (radioisotope filter binding, 3H-SAM, histone H2A); type: biochemical; conditions: 1 μM 3H-SAM, 5 μM histone H2A, 60 min at 30° C.
Method: Compounds were tested for inhibition of methyltransferase activity in a radioisotope filter binding assay, similar to previously described in A selective inhibitor of PRMT5 with in vivo and in vitro potency in MCL models. Chan-Penebre et al., Nat Chem Biol. (2015) 11(6):432-7. In the standard PRMT5/MEP50 enzyme inhibition assay, compounds were tested in a 10-dose IC50 mode with 3- or 5-fold serial dilution, in singlet, starting at 1, 10, or 100 μM. Control compound, SAH (S-(5′-Adenosyl)-L-homocysteine), was tested in 10-dose IC50 mode with 3-fold serial dilution starting at 100 μM. Reactions were carried out at 1 μM 3H-SAM (PerkinElmer) and 5 μM histone H2A as substrates for methyl transfer. Following a 60 min incubation at 30° C., the reaction was stopped with 20% TCA. Each reaction was spotted on a filter plate (MultiScreen FB Filter plate, Millipore) and washed 5 times in PBS, after which scintillation fluid was added and signal was detected in a scintillation counter. Percent enzyme activity was calculated based on no inhibitor DMSO control as 100% activity. EC50 values were determined in GraphPad Prism 8 using the [inhibitor] vs. response—Variable slope (four parameters) function.
as §3

T1 sequence (O14744 whole entry): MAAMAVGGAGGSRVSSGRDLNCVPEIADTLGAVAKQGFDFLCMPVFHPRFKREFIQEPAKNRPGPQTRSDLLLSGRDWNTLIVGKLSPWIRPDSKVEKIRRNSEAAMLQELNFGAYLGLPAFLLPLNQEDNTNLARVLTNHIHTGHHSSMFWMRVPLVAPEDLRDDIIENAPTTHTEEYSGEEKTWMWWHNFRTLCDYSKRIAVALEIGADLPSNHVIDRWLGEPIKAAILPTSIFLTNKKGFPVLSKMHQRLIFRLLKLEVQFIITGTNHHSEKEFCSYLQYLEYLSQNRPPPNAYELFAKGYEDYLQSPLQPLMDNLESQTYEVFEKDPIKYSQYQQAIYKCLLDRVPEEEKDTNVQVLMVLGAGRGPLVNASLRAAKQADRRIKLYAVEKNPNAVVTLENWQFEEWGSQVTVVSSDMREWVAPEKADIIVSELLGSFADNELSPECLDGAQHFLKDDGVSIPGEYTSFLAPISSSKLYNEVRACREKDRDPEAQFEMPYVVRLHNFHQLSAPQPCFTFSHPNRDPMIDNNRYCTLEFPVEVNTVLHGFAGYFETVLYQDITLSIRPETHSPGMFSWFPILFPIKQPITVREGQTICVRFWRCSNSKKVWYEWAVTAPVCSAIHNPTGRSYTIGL
T1 sequence (Q9BQA1 whole entry partner): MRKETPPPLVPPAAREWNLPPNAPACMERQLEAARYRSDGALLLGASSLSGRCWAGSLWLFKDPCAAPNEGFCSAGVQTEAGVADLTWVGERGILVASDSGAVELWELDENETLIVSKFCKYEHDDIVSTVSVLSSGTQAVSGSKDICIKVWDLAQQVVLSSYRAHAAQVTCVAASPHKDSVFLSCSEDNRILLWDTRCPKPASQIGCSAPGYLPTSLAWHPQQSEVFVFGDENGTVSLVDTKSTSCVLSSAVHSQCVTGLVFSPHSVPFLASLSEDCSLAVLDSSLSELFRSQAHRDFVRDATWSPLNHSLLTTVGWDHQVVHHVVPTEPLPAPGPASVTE

Compound | EC50 (HepG2 hepatoma cells) [nM] | EC50 [1] [nM] | IC50 (PRMT5/MEP50 [2]) [nM] | IC50 (PRMT5/MEP50 [3]) [nM]
Nc1nc2cc(OC[C@@H]3[C@@H](O)[C@@H](O)[C@]4(n5ccc6c(N)ncnc65)C[C@@H]34)ccc2cc1Br (racemic) [Compound 17, rac-(2S,3R,4R,5S)-4-[(2-amino-3-bromo-7-quinolyl)oxymethyl]-1-(4-aminopyrrolo[2,3-d]pyrimidin-7-yl)bicyclo[3.1.0]hexane-2,3-diol] | ≥ 1000 | ≥ 1000 |  | 
C[C@]1(CCc2ccc3cc(Br)c(N)nc3c2)C[C@@H](n2ccc3c(N)ncnc32)[C@H](O)[C@@H]1O [Compound 1] |  |  | < 1 | < 1
C=C1[C@@H](n2ccc3c(N)ncnc32)[C@H](O)[C@H](O)[C@H]1CCc1ccc2cc(Br)c(Cl)nc2c1 [Compound 3] | 100 to 1000 | 100 to 1000 | > 100 | > 100
C[C@H]1[C@H](CCc2ccc3ccc(N)nc3c2)[C@@H](O)[C@@H](O)[C@@H]1n1ccc2c(N)ncnc21 [Compound 5] | 100 to 1000 | 100 to 1000 | < 1 | < 1
C[C@@H]1[C@H](CCc2ccc3ccc(N)nc3c2)[C@@H](O)[C@@H](O)[C@@H]1n1ccc2c(N)ncnc21 [Compound 6] | ≥ 1000 | ≥ 1000 | 1 to 100 | 1 to 100
Cc1cnc2cc(OC[C@@]34C[C@@H]3[C@@H](n3ccc5c(N)ncnc53)[C@H](O)[C@@H]4O)ccn12 [Compound 16] | ≥ 1000 | ≥ 1000 | < 1 | 
CC(C)C(=O)O[C@H]1[C@H](n2ccc3c(N)ncnc32)C[C@](C)(CCc2ccc3nc(N)ccc3c2)[C@H]1OC(=O)C(C)C [Compound 26-A] | ≥ 1000 | ≥ 1000 | > 100 | 
C[C@]1(CCc2ccc3cc(Cl)c(N)nc3c2)C[C@@H](n2ccc3c(N)ncnc32)[C@H](O)[C@]1(C)O [Compound 28] | 20 to 100 | 100 to 1000 | < 1 | 
Cn1c(N)nc2cc(CC[C@@]3(C)C[C@@H](n4ccc5c(N)ncnc54)[C@H](O)[C@@H]3O)ccc2c1=O [Compound 29] | < 20 | 20 to 100 | < 1 | 
C[C@]1(CCc2cc(F)c3cc(Cl)c(N)nc3c2)C[C@@H](n2ccc3c(N)ncc(F)c32)[C@H](O)[C@@H]1O [Compound 34, (1S,2R,3S,5R)-3-[2-(2-amino-3-chloro-5-fluoro-7-quinolyl)ethyl]-5-(4-amino-7-fluoro-pyrrolo[3,2-c]pyridin-1-yl)-3-methyl-cyclopentane-1,2-diol] |  |  | < 1 | 
Nc1ccc2ccc(CC[C@@]3(F)C[C@@H](n4ccc5c(N)ncnc54)[C@H](O)[C@@H]3O)cc2n1 [Compound 35, (1S,2S,3R,5R)-5-(4-amino-7H-pyrrolo[2,3-d]pyrimidin-7-yl)-3-(2-(2-aminoquinolin-7-yl)ethyl)-3-fluorocyclopentane-1,2-diol] |  |  | < 1 | 
C[C@]1(CCc2cc(F)c3ccc(N)nc3c2)C[C@@H](n2ccc3c(N)ncc(F)c32)[C@H](O)[C@@H]1O [Compound 42, (1S,2R,3S,5R)-3-(2-(2-amino-5-fluoroquinolin-7-yl)ethyl)-5-(4-amino-7-fluoro-1H-pyrrolo[3,2-c]pyridin-1-yl)-3-methylcyclopentane-1,2-diol] |  |  | < 1 | 
CCCCCOC(=O)Nc1ccc2ccc(CC[C@@]3(C)C[C@@H](c4ccc5c(N)ncnn45)[C@H](O)[C@@H]3O)cc2n1 [Compound 55] | 20 to 100 | 20 to 100 | > 100 | 

Next, values leading:

EC50 (HepG2 hepatoma cells) [nM] | EC50 [1] [nM] | IC50 (PRMT5/MEP50 [2]) [nM] | IC50 (PRMT5/MEP50 [3]) [nM] | Compound
< 20 | < 20 | < 1 | < 1 | Nc1nc2cc(CC[C@@]34C[C@@H]3[C@@H](n3ccc5c(N)ncnc53)[C@H](O)[C@@H]4O)ccc2cc1Br [Compound 2]
< 20 | < 20 | < 1 | < 1 | C=C1[C@@H](n2ccc3c(N)ncnc32)[C@H](O)[C@H](O)[C@H]1CCc1ccc2cc(Br)c(N)nc2c1 [Compound 4]
< 20 | < 20 | < 1 |  | C[C@]1(CCc2ccc3cc(Cl)c(N)nc3c2)C[C@@H](n2ccc3c(N)ncnc32)[C@H](O)[C@@H]1O [Compound 18]
< 20 | < 20 | < 1 |  | C[C@]1(CCc2ccc3cc(C(F)F)c(N)nc3c2)C[C@@H](n2ccc3c(N)ncnc32)[C@H](O)[C@@H]1O [Compound 23]
20 to 100 | 20 to 100 | < 1 |  | C[C@]1(CCc2ccc3ccc(N)nc3n2)C[C@@H](n2ccc3c(N)ncnc32)[C@H](O)[C@@H]1O [Compound 24]
20 to 100 | 20 to 100 | < 1 |  | C[C@]1(CCc2ccc3cc(C#N)c(N)nc3c2)C[C@@H](n2ccc3c(N)ncnc32)[C@H](O)[C@@H]1O [Compound 27]
< 20 | < 20 | < 1 |  | C[C@]1(CCc2ccc3cc(Br)c(N)nc3c2)C[C@@H](n2ccc3c(N)ncc(F)c32)[C@H](O)[C@@H]1O [Compound 50]
< 20 | < 20 | < 1 |  | C[C@]1(CCc2cc(F)c3cc(Cl)c(N)nc3c2)C[C@@H](n2ccc3c(N)nc(Cl)nc32)[C@H](O)[C@@H]1O [Compound 53]
< 20 | < 20 |  |  | C[C@]1(CCc2cc(F)c3cc(Cl)c(N)nc3c2)C[C@@H](c2ccc3c(N)ncnn23)[C@H](O)[C@@H]1O [Compound 57]
< 20 | < 20 |  |  | COC[C@]1(CCc2ccc3cc(Br)c(N)nc3c2)C[C@@H](n2ccc3c(N)ncnc32)[C@H](O)[C@@H]1O [Compound 58]
< 20 | < 20 | < 1 |  | C[C@]1(CCc2ccc3cc(Br)c(N)nc3c2)C[C@@H](c2ccc3c(N)ncnn23)[C@H](O)[C@@H]1O [Compound 59]
 | < 20 |  |  | C=C[C@]1(CCc2ccc3cc(Br)c(N)nc3c2)C[C@@H](n2ccc3c(N)ncnc32)[C@H](O)[C@@H]1O [Compound 62]
 | < 20 |  |  | C#C[C@]1(CCc2ccc3cc(Br)c(N)nc3c2)C[C@@H](n2ccc3c(N)ncnc32)[C@H](O)[C@@H]1O [Compound 63]
 | < 20 |  |  | COC[C@]1(CCc2cc(F)c3cc(Cl)c(N)nc3c2)C[C@@H](c2ccc3c(N)ncnn23)[C@H](O)[C@@H]1O [Compound 64]
